Measurements as given in ChEMBL document CHEMBL4422675, “Pyrrolinone derivatives as a new class of P2X3 receptor antagonists Part 2: Discovery of orally bioavailable compounds” (Bioorg Med Chem Lett, 2019).

Tests used:
in vivo = conditions: rat, iv, 0.5 mg/kg
[1] = Half life in rat at 0.5 mg/kg, iv or 1 mg/kg, po; format: ADME, organism-based; conditions: in vivo
[2] = Oral bioavailability in rat at 1 mg/kg; format: ADME, organism-based; conditions: in vivo
[3] = AUC in rat at 3 mg/kg, po; format: ADME, organism-based; conditions: in vivo
[4] = Cmax in rat at 3 mg/kg, po; format: ADME, organism-based; parameters: dose 3 mg/kg, route oral; conditions: in vivo
[5] = Half life in rat at 1 mg/kg, iv; format: ADME, organism-based; conditions: in vivo
[6] = Oral bioavailability in rat at 3 mg/kg; format: ADME, organism-based; conditions: in vivo
[7] = Total clearance in rat at 1 mg/kg, iv; format: ADME, organism-based; conditions: in vivo

## CC(C)C(=O)C1=C(O)C(=O)N(c2ccc(-c3ccsc3)cc2)C1c1ccccc1OCC[S+](C)[O-] (stereo not given)
In vivo
  clearance: 23.2 mL/min/kg
[1]
  half-life: 1.1 h
[2]
  bioavailability: 0.7%

## CCC(CC)C1C(C(=O)c2ccc(OC)cc2)=C(O)C(=O)N1c1ccc(-c2ccon2)cc1 (stereo not given)
In vivo
  clearance: 5.1 mL/min/kg
[1]
  half-life: 4.2 h
[2]
  bioavailability: 18.9%

## COc1ccccc1[C@@H]1C(C(=O)C(C)C)=C([O-])C(=O)N1c1ccc(-c2ccsc2)cc1.[Na+]
[3]
  AUC: 48400 ng·h/mL
[4]
  Cmax: 4230 ng/mL
[5]
  half-life: 3.2 h
[6]
  bioavailability: 37.4%
[7]
  clearance: 0.39 mL/min/kg

## COc1ccccc1C1C(C(=O)C(C)(C)C)=C(O)C(=O)N1c1ccc(-c2ccon2)cc1 (stereo not given)
In vivo
  clearance: 1.3 mL/min/kg
[1]
  half-life: 2.6 h
[2]
  bioavailability: 77.9%

## CC(C)(C)C(=O)C1=C(O)C(=O)N(c2ccc(-c3ccsc3)cc2)C1c1ccccc1OCC(=O)O (stereo not given)
[1]
  half-life: 4.2 h
[2]
  bioavailability: 5.2%

## COc1ccccc1C1C(C(=O)C(C)C)=C(O)C(=O)N1c1ccc(-c2ccsc2)cc1 (stereo not given)
In vivo
  clearance: 0.3 mL/min/kg
[1]
  half-life: 6.1 h
[2]
  bioavailability: 20%

## COc1ccc(C(=O)C2=C(O)C(=O)N(c3ccc(-c4ccon4)cc3)C2C2CCCCC2)cn1 (stereo not given)
In vivo
  clearance: 4.6 mL/min/kg
[1]
  half-life: 1.4 h
[2]
  bioavailability: 28.1%

## C[S+]([O-])CCOc1ccccc1C1C(C(=O)C(C)(C)C)=C(O)C(=O)N1c1ccc(-c2ccsc2)cc1 (stereo not given)
In vivo
  clearance: 13.7 mL/min/kg
[1]
  half-life: 1.4 h
[2]
  bioavailability: 23.2%

## CC(C)(C)C(=O)C1=C(O)C(=O)N(c2ccc(-c3cccs3)cc2)C1c1ccccc1OCCO (stereo not given)
In vivo
  clearance: 1.3 mL/min/kg
[1]
  half-life: 2 h
[2]
  bioavailability: 65.2%

## CNC(=O)c1ccc(C(=O)C2=C(O)C(=O)N(c3ccc(-c4ccon4)cc3)C2C2CCCCC2)cc1 (stereo not given)
[1]
  half-life: 0.7 h
[2]
  bioavailability: 1.6%

## CC(C)(C)C(=O)C1=C(O)C(=O)N(c2ccc(-c3ccsc3)cc2)C1c1ccccc1OCCO (stereo not given)
[1]
  half-life: 3.3 h
[2]
  bioavailability: 39.5%

## O=C(O)c1ccc(C(=O)C2=C(O)C(=O)N(c3ccc(-c4ccon4)cc3)C2C2CCCCC2)cc1 (stereo not given)
[1]
  half-life: 1.9 h
[2]
  bioavailability: 3.7%

## CC(C)C(=O)C1=C(O)C(=O)N(c2ccc(-c3ccsc3)cc2)C1c1ccccc1OCCO (stereo not given)
[1]
  half-life: 1 h
[2]
  bioavailability: 40.8%

## COc1ccc(C(=O)C2=C(O)C(=O)N(c3ccc(-c4ccon4)cc3)C2c2ccccc2OC)cc1 (stereo not given)
In vivo
  clearance: 8.8 mL/min/kg
[1]
  half-life: 0.5 h
[2]
  bioavailability: 19.9%

## COc1ccc(C(=O)C2=C(O)C(=O)N(c3ccc(-c4ccon4)cc3)C2c2ccccc2OCCO)cc1 (stereo not given)
[1]
  half-life: 0.5 h
[2]
  bioavailability: 9%

## CC(C)(C)C(=O)C1=C(O)C(=O)N(c2ccc(-c3ccon3)cc2)C1c1ccccc1OCCO (stereo not given)
In vivo
  clearance: 2.9 mL/min/kg
[1]
  half-life: 2.1 h
[2]
  bioavailability: 49.9%

## CN(C)CCOc1ccccc1C1C(C(=O)C(C)(C)C)=C(O)C(=O)N1c1ccc(-c2ccsc2)cc1 (stereo not given)
In vivo
  clearance: 7.3 mL/min/kg
[1]
  half-life: 1.5 h
[2]
  bioavailability: 15.5%

## O=C(C1=C(O)C(=O)N(c2ccc(-c3ccon3)cc2)C1C1CCCCC1)c1ccc(CO)cc1 (stereo not given)
In vivo
  clearance: 3.8 mL/min/kg
[1]
  half-life: 1.4 h
[2]
  bioavailability: 6.7%
